# Measurements reported in publication PMC4175002, “The Design and Synthesis of Potent and Selective Inhibitors of Trypanosoma brucei Glycogen Synthase Kinase 3 for the Treatment of Human African Trypanosomiasis” (Journal of Medicinal Chemistry, 2014).
# How the values were obtained:
# Type in all cases: biochemical
# TbGSK3 short = target: T1, TbGSK3 short (Trypanosoma brucei brucei, UniProt Q388M1); test: Radiometric 96-well Flashplate potency assay, TbGSK3
# T1 sequence (Q388M1 1-352): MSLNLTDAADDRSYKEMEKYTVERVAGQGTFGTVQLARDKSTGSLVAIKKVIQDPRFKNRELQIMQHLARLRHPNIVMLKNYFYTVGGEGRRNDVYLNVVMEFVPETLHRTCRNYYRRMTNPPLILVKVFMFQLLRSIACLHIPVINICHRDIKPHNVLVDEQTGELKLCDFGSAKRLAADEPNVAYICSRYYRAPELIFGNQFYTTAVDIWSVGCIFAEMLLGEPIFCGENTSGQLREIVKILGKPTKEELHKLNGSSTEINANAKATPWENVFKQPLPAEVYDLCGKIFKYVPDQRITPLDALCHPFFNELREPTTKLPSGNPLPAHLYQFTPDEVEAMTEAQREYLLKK
# Method: For compound potency determinations, a radiometric 96-well Flashplate assay (PerkinElmer) was adopted. Compounds were solubilized in DMSO at a top concentration of 3 mM and serially diluted to achieve 10-point titration of final assay concentrations from 30 μM to 0.3 nM with a final DMSO concentration of 1% (v/v). The reaction mixtures contained 1 μM biotinylated GSP2 substrate, 1 μM ATP, 3.7 KBq/well [γ-33P]-ATP and 2.5 nM TbGSK3 in the TbGSK3 kinase assay buffer. GSK3 inhibitors were screened for selectivity assessment also against HsGSK3β. For HsGSK3 assay, the reaction mixes contained 1 μM biotinylated GSP2 substrate, 2 μM ATP, 7.4 KBq/well [γ-33P]-ATP and 15 nM HsGSK3β in the TbGSK3 kinase assay buffer (25 mM Tris-HCl, pH 7.5, 10 mM MgCl2, 5 mM DTT, 0.02% CHAPS, 2 U/mL heparin). For HsCDK2/cyclin A assay, the reaction mixtures contained 1 mM CDK5 biotinylated peptide substrate (Biotin-C6-PKTPKKAKKL), 1 μM ATP, 7.4 KBq/well [γ-^33P]-ATP and 2 nM HsCDK2/cyclin A in the kinase assay buffer (50 mM Tris-HCl, pH 7.5, 10 mM MgCl2, 2 mM DTT, 100 mM NaCl, 0.2 mM EGTA, 0.02% (v/v) Brij35).
# The statistical significance of the compound potency (IC50) was based on the performance of standard molecules which have been tested to a high replication. In the case of TbGSK3 short assay, the standard compound GW8510 was tested 93 times across 9 independent runs. […] The minimum significant ratio (MSR) of 0.4 was evaluated considering the following formula: [drawing 1] where SD is the standard deviation and N the number of replicate values routinely used for the assay (2 in our case).[31] This implies that a difference of >0.4 in pIC50 can be considered statistically significant for this assay.
# BRSK2 = target: T2, BRSK2 (Homo sapiens, UniProt Q8IWQ3); test: Mammalian kinase profiling (DSTT panel); conditions: 10 μM; average percentage of remaining activity
# T2 construct: purchased Division of Signal Transduction Therapy (DSTT), University of Dundee
# CHK1 = target: T3, CHK1 (Homo sapiens, UniProt O14757); test: Mammalian kinase profiling (DSTT panel); conditions: 10 μM; average percentage of remaining activity
# T3 construct: purchased Division of Signal Transduction Therapy (DSTT), University of Dundee
# CSK = target: T4, CSK (Homo sapiens, UniProt P41240); test: Mammalian kinase profiling (DSTT panel); conditions: 10 μM; average percentage of remaining activity
# T4 construct: purchased Division of Signal Transduction Therapy (DSTT), University of Dundee
# EF2K = target: T5, EF2K (Homo sapiens, UniProt O00418); test: Mammalian kinase profiling (DSTT panel); conditions: 10 μM; average percentage of remaining activity
# T5 construct: purchased Division of Signal Transduction Therapy (DSTT), University of Dundee
# T5 sequence (O00418 whole entry): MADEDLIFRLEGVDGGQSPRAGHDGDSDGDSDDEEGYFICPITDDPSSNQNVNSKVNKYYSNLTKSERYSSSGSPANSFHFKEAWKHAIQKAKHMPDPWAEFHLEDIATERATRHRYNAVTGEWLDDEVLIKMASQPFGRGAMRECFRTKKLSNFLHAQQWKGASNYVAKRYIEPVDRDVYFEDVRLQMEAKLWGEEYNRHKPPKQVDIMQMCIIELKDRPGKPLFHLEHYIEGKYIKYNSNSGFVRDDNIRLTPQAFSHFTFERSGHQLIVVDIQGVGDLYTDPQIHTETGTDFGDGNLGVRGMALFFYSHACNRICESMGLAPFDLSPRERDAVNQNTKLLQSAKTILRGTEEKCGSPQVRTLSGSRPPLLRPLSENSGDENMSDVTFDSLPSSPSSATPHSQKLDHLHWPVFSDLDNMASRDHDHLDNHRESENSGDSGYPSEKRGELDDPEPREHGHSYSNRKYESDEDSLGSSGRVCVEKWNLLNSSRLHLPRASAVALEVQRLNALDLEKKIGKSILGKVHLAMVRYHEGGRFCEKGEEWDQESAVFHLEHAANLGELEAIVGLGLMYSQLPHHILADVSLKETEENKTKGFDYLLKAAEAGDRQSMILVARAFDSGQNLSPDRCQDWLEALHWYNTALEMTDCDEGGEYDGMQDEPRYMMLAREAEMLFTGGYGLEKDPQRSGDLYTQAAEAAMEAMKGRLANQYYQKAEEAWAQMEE
# FGF-R1 = target: T6, FGF-R1 (Homo sapiens, UniProt P11362); test: Mammalian kinase profiling (DSTT panel); conditions: 10 μM; average percentage of remaining activity
# T6 construct: purchased Division of Signal Transduction Therapy (DSTT), University of Dundee
# IKKe = target: T7, IKKe (Homo sapiens, UniProt Q14164); test: Mammalian kinase profiling (DSTT panel); conditions: 10 μM; average percentage of remaining activity
# T7 construct: purchased Division of Signal Transduction Therapy (DSTT), University of Dundee
# T7 sequence (Q14164 whole entry): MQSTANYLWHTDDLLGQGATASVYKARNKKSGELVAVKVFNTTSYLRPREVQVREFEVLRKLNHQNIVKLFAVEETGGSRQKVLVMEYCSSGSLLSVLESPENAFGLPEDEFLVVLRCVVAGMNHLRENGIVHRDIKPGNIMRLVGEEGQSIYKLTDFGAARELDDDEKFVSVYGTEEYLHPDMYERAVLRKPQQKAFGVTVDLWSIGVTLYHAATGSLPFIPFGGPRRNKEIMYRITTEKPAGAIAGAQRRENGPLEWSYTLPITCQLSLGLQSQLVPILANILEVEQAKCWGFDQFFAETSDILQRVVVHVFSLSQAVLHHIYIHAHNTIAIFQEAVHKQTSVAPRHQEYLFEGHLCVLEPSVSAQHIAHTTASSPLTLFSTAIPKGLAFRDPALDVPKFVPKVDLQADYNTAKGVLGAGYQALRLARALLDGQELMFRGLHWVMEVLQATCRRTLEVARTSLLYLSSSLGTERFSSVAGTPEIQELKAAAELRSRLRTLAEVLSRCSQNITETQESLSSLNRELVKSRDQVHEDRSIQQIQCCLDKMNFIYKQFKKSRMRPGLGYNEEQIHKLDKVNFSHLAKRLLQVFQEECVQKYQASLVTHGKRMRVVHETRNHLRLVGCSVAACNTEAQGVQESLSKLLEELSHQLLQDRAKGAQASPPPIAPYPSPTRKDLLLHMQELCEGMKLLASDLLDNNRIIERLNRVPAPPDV
# MARK3 = target: T8, MARK3 (Homo sapiens, UniProt P27448); test: Mammalian kinase profiling (DSTT panel); conditions: 10 μM; average percentage of remaining activity
# T8 construct: purchased Division of Signal Transduction Therapy (DSTT), University of Dundee
# T8 sequence (P27448 whole entry): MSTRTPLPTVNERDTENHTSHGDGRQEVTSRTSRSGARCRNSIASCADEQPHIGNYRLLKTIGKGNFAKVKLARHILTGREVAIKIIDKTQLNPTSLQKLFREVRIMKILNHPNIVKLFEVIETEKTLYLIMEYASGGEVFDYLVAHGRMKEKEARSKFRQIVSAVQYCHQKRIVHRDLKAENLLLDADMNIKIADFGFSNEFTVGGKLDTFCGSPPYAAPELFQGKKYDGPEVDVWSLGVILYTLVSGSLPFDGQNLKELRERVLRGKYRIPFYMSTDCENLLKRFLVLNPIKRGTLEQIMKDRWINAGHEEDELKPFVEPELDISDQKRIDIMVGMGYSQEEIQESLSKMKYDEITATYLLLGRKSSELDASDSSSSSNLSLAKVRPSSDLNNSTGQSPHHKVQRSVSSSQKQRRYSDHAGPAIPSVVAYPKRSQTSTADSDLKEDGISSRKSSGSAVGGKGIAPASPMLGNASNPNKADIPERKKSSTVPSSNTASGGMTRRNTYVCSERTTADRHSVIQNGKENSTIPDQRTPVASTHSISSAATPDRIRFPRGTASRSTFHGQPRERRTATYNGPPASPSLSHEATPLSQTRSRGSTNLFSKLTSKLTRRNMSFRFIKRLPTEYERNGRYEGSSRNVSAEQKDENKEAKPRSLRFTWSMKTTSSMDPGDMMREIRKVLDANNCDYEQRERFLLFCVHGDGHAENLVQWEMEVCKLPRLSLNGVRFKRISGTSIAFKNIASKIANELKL
# MNK2 = target: T9, MNK2 (Homo sapiens, UniProt Q9HBH9); test: Mammalian kinase profiling (DSTT panel); conditions: 10 μM; average percentage of remaining activity
# T9 construct: purchased Division of Signal Transduction Therapy (DSTT), University of Dundee
# T9 sequence (Q9HBH9 whole entry): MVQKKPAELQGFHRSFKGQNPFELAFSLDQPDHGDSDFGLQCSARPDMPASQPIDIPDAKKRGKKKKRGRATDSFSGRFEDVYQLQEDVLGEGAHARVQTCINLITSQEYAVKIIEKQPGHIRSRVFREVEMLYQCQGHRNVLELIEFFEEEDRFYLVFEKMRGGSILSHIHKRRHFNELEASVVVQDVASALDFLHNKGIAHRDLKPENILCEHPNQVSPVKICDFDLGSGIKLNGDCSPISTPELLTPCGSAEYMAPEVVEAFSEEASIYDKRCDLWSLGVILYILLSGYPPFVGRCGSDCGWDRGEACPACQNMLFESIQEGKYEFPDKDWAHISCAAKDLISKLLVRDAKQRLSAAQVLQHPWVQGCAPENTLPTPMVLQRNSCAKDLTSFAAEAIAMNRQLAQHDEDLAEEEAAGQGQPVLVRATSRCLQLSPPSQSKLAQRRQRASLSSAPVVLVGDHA
# NEK6 = target: T10, NEK6 (Homo sapiens, UniProt Q9HC98); test: Mammalian kinase profiling (DSTT panel); conditions: 10 μM; average percentage of remaining activity
# T10 construct: purchased Division of Signal Transduction Therapy (DSTT), University of Dundee
# P38s MAPK = target: T11, P38s MAPK (Homo sapiens, UniProt O15264); test: Mammalian kinase profiling (DSTT panel); conditions: 10 μM; average percentage of remaining activity
# T11 construct: purchased Division of Signal Transduction Therapy (DSTT), University of Dundee
# T11 sequence (O15264 whole entry): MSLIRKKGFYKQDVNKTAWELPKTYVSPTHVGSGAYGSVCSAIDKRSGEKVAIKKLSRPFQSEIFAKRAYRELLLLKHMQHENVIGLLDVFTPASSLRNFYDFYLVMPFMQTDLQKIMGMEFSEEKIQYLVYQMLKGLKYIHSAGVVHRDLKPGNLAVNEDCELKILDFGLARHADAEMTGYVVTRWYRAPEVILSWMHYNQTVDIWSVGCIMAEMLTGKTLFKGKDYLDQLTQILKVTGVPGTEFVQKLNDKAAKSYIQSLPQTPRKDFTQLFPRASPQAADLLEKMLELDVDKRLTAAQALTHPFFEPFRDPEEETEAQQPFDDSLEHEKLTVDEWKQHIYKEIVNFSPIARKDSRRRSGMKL
# PHK = target: T12, PHK (Homo sapiens, UniProt Q16816); test: Mammalian kinase profiling (DSTT panel); conditions: 10 μM; average percentage of remaining activity
# T12 construct: purchased Division of Signal Transduction Therapy (DSTT), University of Dundee
# T12 sequence (Q16816 whole entry): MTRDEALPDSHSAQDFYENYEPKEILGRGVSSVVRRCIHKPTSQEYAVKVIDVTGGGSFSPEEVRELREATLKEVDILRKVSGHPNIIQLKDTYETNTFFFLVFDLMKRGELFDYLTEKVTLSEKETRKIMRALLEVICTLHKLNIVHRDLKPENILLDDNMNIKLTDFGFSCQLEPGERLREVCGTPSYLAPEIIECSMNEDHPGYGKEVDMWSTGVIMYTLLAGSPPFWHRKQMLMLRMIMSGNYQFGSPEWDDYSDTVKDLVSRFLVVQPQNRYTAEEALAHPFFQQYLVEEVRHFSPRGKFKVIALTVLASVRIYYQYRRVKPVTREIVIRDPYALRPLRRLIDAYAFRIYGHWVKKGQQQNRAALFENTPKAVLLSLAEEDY
# PKC zeta = target: T13, PKC zeta (Homo sapiens, UniProt Q05513); test: Mammalian kinase profiling (DSTT panel); conditions: 10 μM; average percentage of remaining activity
# T13 construct: purchased Division of Signal Transduction Therapy (DSTT), University of Dundee
# PLK1 = target: T14, PLK1 (Homo sapiens, UniProt P53350); test: Mammalian kinase profiling (DSTT panel); conditions: 10 μM; average percentage of remaining activity
# T14 construct: purchased Division of Signal Transduction Therapy (DSTT), University of Dundee
# Src = target: T15, Src (Homo sapiens, UniProt P12931); test: Mammalian kinase profiling (DSTT panel); conditions: 10 μM; average percentage of remaining activity
# T15 construct: purchased Division of Signal Transduction Therapy (DSTT), University of Dundee
# TBK1 = target: T16, TBK1 (Homo sapiens, UniProt Q9UHD2); test: Mammalian kinase profiling (DSTT panel); conditions: 10 μM; average percentage of remaining activity
# T16 construct: purchased Division of Signal Transduction Therapy (DSTT), University of Dundee
# Aurora B = target: T17, Aurora B (Homo sapiens, UniProt Q96GD4); test: Mammalian kinase profiling (DSTT panel); conditions: 10 μM; average percentage of remaining activity
# T17 construct: purchased Division of Signal Transduction Therapy (DSTT), University of Dundee
# IKKb = target: T18, IKKb (Homo sapiens, UniProt O14920); test: Mammalian kinase profiling (DSTT panel); conditions: 10 μM; average percentage of remaining activity
# T18 construct: purchased Division of Signal Transduction Therapy (DSTT), University of Dundee
# T18 sequence (O14920 whole entry): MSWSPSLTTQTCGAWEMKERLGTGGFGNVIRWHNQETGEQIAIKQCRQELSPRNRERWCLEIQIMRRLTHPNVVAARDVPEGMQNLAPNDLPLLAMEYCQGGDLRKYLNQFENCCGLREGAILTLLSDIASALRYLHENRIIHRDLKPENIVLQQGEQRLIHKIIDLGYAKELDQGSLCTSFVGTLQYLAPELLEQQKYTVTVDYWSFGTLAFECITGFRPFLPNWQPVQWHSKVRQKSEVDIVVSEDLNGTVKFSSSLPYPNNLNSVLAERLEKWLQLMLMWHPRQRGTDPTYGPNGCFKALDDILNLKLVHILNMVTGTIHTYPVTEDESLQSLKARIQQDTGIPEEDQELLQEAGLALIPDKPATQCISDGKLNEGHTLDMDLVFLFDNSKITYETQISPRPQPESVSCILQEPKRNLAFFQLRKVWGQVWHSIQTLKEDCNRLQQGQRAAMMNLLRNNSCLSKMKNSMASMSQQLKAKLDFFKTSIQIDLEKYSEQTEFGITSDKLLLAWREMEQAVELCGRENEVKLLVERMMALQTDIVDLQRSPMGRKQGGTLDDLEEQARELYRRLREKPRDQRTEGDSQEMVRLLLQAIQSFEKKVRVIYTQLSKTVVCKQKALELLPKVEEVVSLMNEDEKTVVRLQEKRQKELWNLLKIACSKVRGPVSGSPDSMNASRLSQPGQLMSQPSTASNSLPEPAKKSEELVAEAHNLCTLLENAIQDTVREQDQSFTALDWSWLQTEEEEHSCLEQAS
# MST4 = target: T19, MST4 (Homo sapiens, UniProt Q9P289); test: Mammalian kinase profiling (DSTT panel); conditions: 10 μM; average percentage of remaining activity
# T19 construct: purchased Division of Signal Transduction Therapy (DSTT), University of Dundee
# PAK6 = target: T20, PAK6 (Homo sapiens, UniProt Q9NQU5); test: Mammalian kinase profiling (DSTT panel); conditions: 10 μM; average percentage of remaining activity
# T20 construct: purchased Division of Signal Transduction Therapy (DSTT), University of Dundee
# T20 sequence (Q9NQU5 whole entry): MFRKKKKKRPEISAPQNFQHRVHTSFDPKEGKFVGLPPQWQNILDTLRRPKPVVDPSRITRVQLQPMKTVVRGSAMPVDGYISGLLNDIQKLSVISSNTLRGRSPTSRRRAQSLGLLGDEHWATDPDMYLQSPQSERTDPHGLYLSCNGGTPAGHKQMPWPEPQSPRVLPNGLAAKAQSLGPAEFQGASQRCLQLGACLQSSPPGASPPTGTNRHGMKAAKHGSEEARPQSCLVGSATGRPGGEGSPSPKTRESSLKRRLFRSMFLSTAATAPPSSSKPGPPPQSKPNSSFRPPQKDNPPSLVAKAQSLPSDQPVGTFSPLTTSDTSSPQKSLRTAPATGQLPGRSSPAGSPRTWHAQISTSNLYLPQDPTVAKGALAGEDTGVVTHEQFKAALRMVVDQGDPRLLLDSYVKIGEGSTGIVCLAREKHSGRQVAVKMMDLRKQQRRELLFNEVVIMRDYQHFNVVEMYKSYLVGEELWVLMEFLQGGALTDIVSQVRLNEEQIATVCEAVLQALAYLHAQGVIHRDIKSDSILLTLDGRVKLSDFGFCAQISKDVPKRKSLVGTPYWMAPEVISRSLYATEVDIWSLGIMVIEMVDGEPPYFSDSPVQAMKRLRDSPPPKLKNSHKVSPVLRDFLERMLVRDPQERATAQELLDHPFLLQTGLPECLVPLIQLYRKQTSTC
# PKD1 = target: T21, PKD1 (Homo sapiens, UniProt Q15139); test: Mammalian kinase profiling (DSTT panel); conditions: 10 μM; average percentage of remaining activity
# T21 construct: purchased Division of Signal Transduction Therapy (DSTT), University of Dundee
SMILES,BRSK2 activity compared to the control (BRSK2) [%],CHK1 activity compared to the control (CHK1) [%],CSK activity compared to the control (CSK) [%],EF2K activity compared to the control (EF2K) [%],FGF-R1 activity compared to the control (FGF-R1) [%],IKKe activity compared to the control (IKKe) [%],MARK3 activity compared to the control (MARK3) [%],MNK2 activity compared to the control (MNK2) [%],NEK6 activity compared to the control (NEK6) [%],P38s MAPK activity compared to the control (P38s MAPK) [%],PHK activity compared to the control (PHK) [%],PKC zeta activity compared to the control (PKC zeta) [%],PLK1 activity compared to the control (PLK1) [%],Src activity compared to the control (Src) [%],TBK1 activity compared to the control (TBK1) [%],Aurora B activity compared to the control (Aurora B) [%],IKKb activity compared to the control (IKKb) [%],MST4 activity compared to the control (MST4) [%],PAK6 activity compared to the control (PAK6) [%],PKD1 activity compared to the control (PKD1) [%],also measured
"CO[C@H]1CC[C@H](NC(=O)c2n[nH]cc2NC(=O)c2ccccc2)CC1 [Compound 4f, 4-Benzamido-N-(4-methoxycyclohexyl)-1H-pyrazole-3-carboxamide]",55,100,85,99,99,62,84,100,100,57,89,57,100,98,63,–,–,–,–,–,"improvement of TbGSK3 inhibition potency (TbGSK3 short; relative to saturated six-membered rings (4a, 4b) and benzyl groups (4c, 4d, 4e), on average): ~20 fold"
"COc1cccc(OC)c1C(=O)Nc1c[nH]nc1C(=O)NC1CCC(OC)CC1 (stereo not drawn) [Compound 4m, 4-(2,6-Dimethoxybenzamido)-N-(4-methoxycyclohexyl)-1H-pyrazole-3-carboxamide]",–,–,–,–,–,–,–,–,–,–,–,–,–,–,–,87,100,49,90,59,TbGSK3 potency relative to 4f (TbGSK3 short; more potent than the unsubstituted phenyl compound 4f): approximately 10 fold
"CO[C@H]1CC[C@H](NC(=O)c2n[nH]cc2NC(=O)c2ccc(-c3ccccc3)o2)CC1 [Compound 4y, N-(4-Methoxycyclohexyl)-4-(5-phenylfuran-2-carboxamido)-1H-pyrazole-3-carboxamide]",60,94,73,92,72,46,83,77,70,38,45,60,99,85,73,47,36,30,71,59,–
